{
  "source": "patent US20190308035A1",
  "about": "“A NON-INVASIVE METHOD FOR SELECTIVE NEURAL STIMULATION BY ULTRASOUND” (priority 2018, published 2019)",
  "key": {"[1]": {"system": "CLU199 cells", "test": "qPCR array of cAMP/calcium signalling genes in CLU199 cells", "assay_type": "cell-based, mouse", "conditions": "array of 84 genes, Yodal 1 μM, vs untreated control", "protocol": "Ultrasonic effects in CLU199 cells were explored using a qPCR array that probes 84 genes known to have Ca2+ responsive elements of various kinds.\nA qRT-PCR array that explores genes that regulate calcium-related signalling (RT2 Pathway Finder) was used to evaluate how ultrasound treatment affects cellular signalling. Cells were also either pre-treated with GsMTx-4 (10 μM) before ultrasound or treated with Yodal (1 μM) by way of comparison. Results of the PCR were uploaded to Qiagen/SABiosciences online suite for data analysis, and clustergrams were generated using this software. Information about various subgroups of genes described here (FIG. 2J) were obtained from the product literature.\nCLU199 cells seeded in 35 mm dishes were treated with ultrasound, Yodal or GsMTx-4 as appropriate. Total RNA was collected as described in section 7, and the concentration measured on NanoDrop™ One (Thermo Fisher Scientific). Samples with 260/280>1.8 and 260/230>2.0 were run on a 1% agarose gel containing bleach to check for RNA integrity (2). […] Ct values were calculated using the Quantstudio™ software, exported into a spreadsheet and uploaded to SABiosciences' online array data analysis software (accessible at: http://pcrdataanalysis.sabiosciences.com/per/arrayanalysis.php). […] Resulting clustergrams and a spreadsheet containing the analyzed results were obtained from this software. […]"}, "[2]": {"biological_target": "T1, Piezo1 (Mus musculus, UniProt E2JF22)", "T1 sequence (E2JF22 whole entry)": "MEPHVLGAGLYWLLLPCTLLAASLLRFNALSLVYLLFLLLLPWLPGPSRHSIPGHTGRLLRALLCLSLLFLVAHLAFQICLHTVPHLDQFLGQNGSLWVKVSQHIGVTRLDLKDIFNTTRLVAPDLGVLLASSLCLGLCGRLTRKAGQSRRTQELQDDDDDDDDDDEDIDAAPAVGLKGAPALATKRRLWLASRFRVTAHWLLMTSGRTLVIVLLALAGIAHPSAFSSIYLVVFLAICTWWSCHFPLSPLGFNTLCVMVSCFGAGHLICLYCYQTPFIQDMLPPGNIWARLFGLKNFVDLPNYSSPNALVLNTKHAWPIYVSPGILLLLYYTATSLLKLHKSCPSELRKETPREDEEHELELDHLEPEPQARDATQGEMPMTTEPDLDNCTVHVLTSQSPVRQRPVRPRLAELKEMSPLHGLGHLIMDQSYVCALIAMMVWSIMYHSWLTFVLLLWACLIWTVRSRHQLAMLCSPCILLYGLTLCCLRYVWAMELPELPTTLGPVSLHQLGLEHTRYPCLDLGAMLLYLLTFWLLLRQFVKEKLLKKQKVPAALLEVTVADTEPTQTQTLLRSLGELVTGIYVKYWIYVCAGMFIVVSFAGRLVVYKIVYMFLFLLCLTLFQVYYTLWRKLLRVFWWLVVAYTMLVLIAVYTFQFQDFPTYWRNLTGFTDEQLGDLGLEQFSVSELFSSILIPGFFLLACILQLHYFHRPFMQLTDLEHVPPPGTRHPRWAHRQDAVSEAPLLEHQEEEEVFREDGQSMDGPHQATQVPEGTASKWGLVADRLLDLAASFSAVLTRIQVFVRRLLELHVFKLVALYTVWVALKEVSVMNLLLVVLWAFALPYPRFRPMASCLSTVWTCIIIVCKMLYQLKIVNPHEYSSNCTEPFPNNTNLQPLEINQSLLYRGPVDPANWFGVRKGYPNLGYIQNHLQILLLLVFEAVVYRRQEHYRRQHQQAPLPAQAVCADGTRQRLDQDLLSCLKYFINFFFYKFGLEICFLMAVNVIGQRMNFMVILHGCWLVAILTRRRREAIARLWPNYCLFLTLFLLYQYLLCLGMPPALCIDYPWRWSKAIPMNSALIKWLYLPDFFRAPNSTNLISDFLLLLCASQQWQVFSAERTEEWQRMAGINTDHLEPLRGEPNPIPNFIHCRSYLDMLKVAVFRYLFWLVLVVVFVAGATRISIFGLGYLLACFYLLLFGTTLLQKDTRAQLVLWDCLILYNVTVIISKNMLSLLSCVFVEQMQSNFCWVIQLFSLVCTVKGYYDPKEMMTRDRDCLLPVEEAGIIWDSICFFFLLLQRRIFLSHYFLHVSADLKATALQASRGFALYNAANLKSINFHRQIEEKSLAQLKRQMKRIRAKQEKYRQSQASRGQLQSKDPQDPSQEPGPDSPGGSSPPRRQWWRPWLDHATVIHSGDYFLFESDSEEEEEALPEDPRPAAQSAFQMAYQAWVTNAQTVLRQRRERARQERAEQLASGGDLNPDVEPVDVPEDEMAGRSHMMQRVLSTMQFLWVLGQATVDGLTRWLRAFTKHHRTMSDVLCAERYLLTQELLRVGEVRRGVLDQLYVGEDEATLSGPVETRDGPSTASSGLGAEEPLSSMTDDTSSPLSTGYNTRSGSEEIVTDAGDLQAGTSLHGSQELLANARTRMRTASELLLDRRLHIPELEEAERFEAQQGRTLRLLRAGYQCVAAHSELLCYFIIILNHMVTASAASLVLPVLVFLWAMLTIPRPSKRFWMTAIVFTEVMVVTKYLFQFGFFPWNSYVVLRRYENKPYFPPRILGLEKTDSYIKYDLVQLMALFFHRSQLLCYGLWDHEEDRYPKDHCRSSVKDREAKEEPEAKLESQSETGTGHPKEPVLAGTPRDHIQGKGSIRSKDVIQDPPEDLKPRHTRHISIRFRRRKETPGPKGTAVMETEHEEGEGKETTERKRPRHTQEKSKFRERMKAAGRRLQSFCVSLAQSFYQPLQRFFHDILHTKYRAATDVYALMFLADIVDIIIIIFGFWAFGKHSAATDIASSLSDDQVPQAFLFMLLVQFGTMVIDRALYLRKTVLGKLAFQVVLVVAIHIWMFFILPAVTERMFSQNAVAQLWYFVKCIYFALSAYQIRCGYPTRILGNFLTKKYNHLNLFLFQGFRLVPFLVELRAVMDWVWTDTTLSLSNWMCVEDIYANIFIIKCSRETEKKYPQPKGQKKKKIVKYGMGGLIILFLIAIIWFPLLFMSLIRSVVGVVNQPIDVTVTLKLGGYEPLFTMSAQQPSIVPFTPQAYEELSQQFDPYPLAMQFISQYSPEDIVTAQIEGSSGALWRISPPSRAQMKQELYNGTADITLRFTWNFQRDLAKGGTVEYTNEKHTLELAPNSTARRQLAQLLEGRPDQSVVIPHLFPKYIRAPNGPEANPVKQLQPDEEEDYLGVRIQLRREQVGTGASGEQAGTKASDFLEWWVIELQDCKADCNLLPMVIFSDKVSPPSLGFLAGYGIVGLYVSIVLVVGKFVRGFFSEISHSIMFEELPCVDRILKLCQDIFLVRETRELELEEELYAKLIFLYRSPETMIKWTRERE", "test": "Calcium imaging (Cal590) in 293T cells overexpressing Piezo1", "assay_type": "cell-based", "design": "EGFP; expressed in transfected cells; host or cells: 293T cells (ATCC), pcDNA3.1 Piezo1-EGFP plasmid provided by Dr. Ardem Patapoutian", "conditions": "Yodal; 293T cells overexpressing Piezo1 vs control cells"}, "[3]": {"biological_target": "T1, Piezo1", "test": "Western blot of p-CaMKII and p-CREB in CLU199 cells", "assay_type": "cell-based", "design": "Expression of Piezo1 in CLU199 cells was confirmed through RT-PCR; host or cells: mHippoE-18 (CLU199) embryonic mouse hippocampal cell line", "protocol": "To evaluate effects on cell signalling, the phosphorylated forms of the Calcium/calmodulin-dependent protein kinase type II (p-CaMKII), and the transcription factor CREB (p-CREB) (28), both crucial players in Ca2+ signalling were analysed.\n0.3 MPa ultrasound was then used to treat CLU199 cells with or without Yodal, or the Piezo1 blocker GsMTx-4 [7].\nSMARTpool ON-TARGETplus Piezo1 siRNA (L-061455-00-0005) and ON-TARGETplus Non-Targeting Pool (D-001810-10) siRNA were obtained from Dharmacon. Transfection complexes were prepared by incubating siRNA with Lipofectamine RNAiMAX (Invitrogen) in Opti-MEM for 5 minutes at room temperature. 300 μl of complexes added per 35 mm dish or collagen-coated coverslips (5 μg/cm2). 1.5×10^6 cells were added per dish in fully-supplemented DMEM such that the final siRNA concentration was 125 nM. Cells were incubated for 48 hours post-transfection, and then used for further experiments.\n(§1) CLU199 cells or primary cortical neurons at DIV 10 were treated with ultrasound at acoustic pressures of 0.1, 0.3 or 0.5 MPa for 20 minutes with 20 s interval inside a humified incubator, 37° C., 5% CO2. The ultrasonic stimulation system and treatment parameters are the same as those described in section 4. Yodal (Tocris Bioscience) was used as a Piezo1 agonist with a concentration of 1 μM, while GsMTx-4 (Abcam) was used as a Piezo1 blocker at a concentration of 10 μM. Yodal was added to culture media, followed by a 20-minute incubation or immediate ultrasound treatment. GsMTx-4 was added to culture media, allowed for 30 minutes incubation, and followed by a further 20-minute incubation or ultrasound treatment.\nCells were lysed with RIPA buffer (EMD Millipore), supplemented with 1× Halt™ Protease and Phosphatase Inhibitor Cocktail (Thermo Fisher Scientific) on ice, centrifuged to clear the lysate, and protein concentrations measured using the Bio-Rad protein assay. 30 or 50 μg total protein per well was loaded on 10% SDS-PAGE gels, electrophoresed, and transferred to methanol-activated PVDF membranes. Membranes were blocked with 3% BSA in Tris-buffered-saline+0.05% Tween-20 (TBST). Membranes were incubated in primary antibody diluted in 5% BSA in TBST overnight, washed with TBST and incubated in secondary antibody solutions, diluted in blocking buffer, for 1 hour at room temperature. […]\nProtein levels were quantified through image densitometry using ImageJ. Protein levels were expressed as a fold change compared to the untreated control, an average ±SEM of at least three independent experiments, except in FIG. 2E. Statistical significance was calculated using a two-tailed unpaired student's t-test and P values below 0.05 were considered significant."}, "[4]": {"biological_target": "T1, Piezo1", "test": "Immunocytochemical staining of c-Fos, p-CaMKII and p-CREB in primary cortical neurons", "assay_type": "cell-based", "design": "Expression of Piezo1 in CLU199 cells was confirmed through RT-PCR; host or cells: mHippoE-18 (CLU199) embryonic mouse hippocampal cell line", "conditions": "GsMTx-4 10 μM followed by 0.3 MPa ultrasound", "protocol": "The expression of c-Fos, p-CaMKII and p-CREB was investigated by immunocytochemical staining in primary cortical neurons untreated, treated by ultrasound or treated with GsMTx-4 (10 μM) followed by ultrasound. Each stimulus contained 200 cycles, at 1 kHz RPF with 200 NTB of 500 kHz ultrasound at 0.3 MPa and the results are shown in FIG. 2I.\nPrimary cortical neurons from embryonic mice brains were harvested as described previously with slight modifications. Briefly, pregnant mice were sacrificed at E16.5-E17, and brains from the embryonic mice were collected. They were then dissected under a microscope to separate the cortex from the other brain mass. Cortical cells were dispersed and seeded into culture dishes or collagen-coated glass coverslips (4 μg/cm2). At DIV 10, the cells were used for further experiments.\nas §1\nCLU199 cells and primary neurons at DIV 10, including treated with (+) or without (−) ultrasound, were fixed using 4% paraformaldehyde+PBS and permeabilized using 0.1% Triton X-100+PBS. […] The number of c-Fos+ cells were determined by counting the number of DAPI and c-Fos signals co-located with DAPI from 10 FOVs photographed per condition. Results were expressed as a percentage of c-Fos versus DAPI signals, and were subjected to a one-way ANOVA followed by a post-hoc Tukey test. […]"}, "[5]": {"conditions": "Yodal 1 μM alone, vs untreated control"}, "[6]": {"conditions": "GsMTx-4 10 μM incubation before 0.3 MPa ultrasound"}},
  "note": "Entries after “also recorded” stand apart in the source; their conditions may differ. Bridge positions count the residues as written; N and C are the ends. Ends that are not written are not given here.",
  "data": [
    {"compound": "Clc1cccc(Cl)c1CSc1nnc(-c2cnccn2)s1", "note": "[Yodal]", "values": [
      {"measurement": "number of genes co-downregulated by ultrasound and Yodal", "setting": "[1]", "value": 23},
      {"measurement": "number of genes co-upregulated by ultrasound and Yodal", "setting": "[1]", "value": 43},
      {"measurement": "calcium influx", "setting": "[2]", "value": "Significant Ca2+ increase; also recorded: significantly higher calcium influx"},
      {"measurement": "p-CREB level", "setting": "[3]; [5]", "value": "increased; also recorded: upregulate"},
      {"measurement": "p-CaMKII level", "setting": "[3]; [5]", "value": "increased; also recorded: upregulate"}
    ]},
    {"compound": "GsMTx-4: Piezo1-specific blocker (Abcam), used at 10 μM (GCLEFWWKCNPNDDKCCRPKLKCSKLFKLCNFSF-NH2; disulfide 16-30, 2-17, 9-23; ends not checked)", "values": [
      {"measurement": "p-CREB level after ultrasound", "setting": "[3]; [6]", "value": "reduced to levels comparable to those in the untreated control; also recorded: inhibits this effect"},
      {"measurement": "p-CaMKII level after ultrasound", "setting": "[3]; [6]", "value": "reduced to levels comparable to those in the untreated control; also recorded: inhibits this effect"},
      {"measurement": "level of p-CREB", "setting": "[4]", "value": "affected"},
      {"measurement": "level of p-CaMKII", "setting": "[4]", "value": "affected"},
      {"measurement": "ultrasound-induced c-Fos expression in the nuclei", "setting": "[4]", "value": "inhibited this effect"}
    ]}
  ]
}
